Molecular target: T1, mouse Tas2r144 (Mus musculus, UniProt Q7TQB8)
T1 construct: expressed in transfected cells; host or cells: HEK293T-Gα16gust44
Experiment: Calcium imaging assay (FLIPR), HEK293T-Gα16gust44 cells transfected with mouse Tas2r144
Format: cell-based

T1 sequence (Q7TQB8 whole entry): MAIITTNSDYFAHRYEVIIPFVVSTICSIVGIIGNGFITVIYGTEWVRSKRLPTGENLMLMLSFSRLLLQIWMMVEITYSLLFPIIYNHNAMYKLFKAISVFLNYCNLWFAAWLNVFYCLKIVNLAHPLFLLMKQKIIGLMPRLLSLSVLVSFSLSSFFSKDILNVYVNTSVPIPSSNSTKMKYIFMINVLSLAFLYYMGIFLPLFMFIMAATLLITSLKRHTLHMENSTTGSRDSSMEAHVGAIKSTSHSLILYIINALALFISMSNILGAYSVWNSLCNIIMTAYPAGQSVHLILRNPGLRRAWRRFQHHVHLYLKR

Work on `C[C@H](CCC(=O)NCCS(=O)(=O)O)[C@H]1CC[C@H]2[C@@H]3CC[C@@H]4C[C@H](O)CC[C@]4(C)[C@H]3CC[C@]12C` [Taurolithocholic Acid, taurolithocholic acid] yielded an RLU (Time 0 s) of 0 RLU, an RLU (Time 2 s) of 14.6538 RLU and an RLU (Time 4 s) of 0.2718 RLU. It also gave an RLU (Time 6 s) of -11.922 RLU, an RLU (Time 8 s) of 1.321 RLU and an RLU (Time 12 s) of 10.4417 RLU. It also gave an RLU (Time 14 s) of -10.556 RLU, an RLU (Time 16 s) of -6.199 RLU and an RLU (Time 18 s) of 24.6697 RLU. It also gave an RLU (Time 18.781 s) of 60.5615 RLU, an RLU (Time 20.781 s) of -19.5171 RLU and an RLU (Time 22.781 s) of -4.009 RLU. For the same molecule, the RLU (Time 24.781 s) was -20.7725 RLU, the RLU (Time 26.781 s) was 1.348 RLU and the RLU (Time 28.781 s) was -0.7767 RLU. The RLU (Time 30.781 s) was 41.688 RLU, the RLU (Time 32.781 s) was 71.1245 RLU and the RLU (Time 34.781 s) was 105.382 RLU. For the same molecule, the RLU (Time 36.781 s) was 151.604 RLU, the RLU (Time 38.781 s) was 184.237 RLU and the RLU (Time 40.781 s) was 248.501 RLU. For the same molecule, the RLU (Time 42.781 s) was 269.502 RLU, the RLU (Time 44.781 s) was 268.298 RLU and the RLU (Time 46.781 s) was 327.359 RLU. The RLU (Time 48.781 s) was 341.375 RLU, the RLU (Time 50.781 s) was 358.126 RLU and the RLU (Time 52.781 s) was 372.318 RLU. The RLU (Time 54.781 s) was 375.128 RLU, the RLU (Time 56.781 s) was 360.867 RLU and the RLU (Time 58.781 s) was 388.738 RLU. The RLU (Time 60.781 s) was 413.492 RLU, the RLU (Time 62.781 s) was 416.863 RLU and the RLU (Time 64.781 s) was 424.583 RLU. It also gave an RLU (Time 66.781 s) of 428.264 RLU, an RLU (Time 68.781 s) of 426.421 RLU and an RLU (Time 70.781 s) of 448.262 RLU. It also gave an RLU (Time 72.781 s) of 417.687 RLU, an RLU (Time 74.781 s) of 456.073 RLU and an RLU (Time 76.781 s) of 430.589 RLU. The RLU (Time 78.781 s) was 445.771 RLU, the RLU (Time 80.781 s) was 460.032 RLU and the RLU (Time 82.781 s) was 446.511 RLU. The RLU (Time 84.781 s) was 409.522 RLU, the RLU (Time 86.781 s) was 409.191 RLU and the RLU (Time 88.781 s) was 405.957 RLU. The RLU (Time 90.781 s) was 381.655 RLU, the RLU (Time 92.781 s) was 387.142 RLU and the RLU (Time 94.781 s) was 402.42 RLU. For the same molecule, the RLU (Time 96.781 s) was 404.326 RLU, the RLU (Time 98.781 s) was 373.324 RLU and the RLU (Time 100.781 s) was 389.827 RLU. It also gave an RLU (Time 102.781 s) of 378.133 RLU, an RLU (Time 104.781 s) of 393.124 RLU and an RLU (Time 106.781 s) of 394.729 RLU. It also gave an RLU (Time 108.781 s) of 385.581 RLU, an RLU (Time 110.781 s) of 380.059 RLU and an RLU (Time 112.781 s) of 389.586 RLU. The RLU (Time 114.781 s) was 357.6 RLU, the RLU (Time 116.781 s) was 386.704 RLU and the RLU (Time 118.781 s) was 385.665 RLU. For the same molecule, the RLU (Time 120.781 s) was 364.459 RLU, the RLU (Time 122.781 s) was 361.618 RLU and the RLU (Time 124.781 s) was 373.746 RLU. It also gave an RLU (Time 126.781 s) of 327.57 RLU, an RLU (Time 128.781 s) of 359.155 RLU and an RLU (Time 130.781 s) of 325.368 RLU. It also gave an RLU (Time 132.781 s) of 293.828 RLU, an RLU (Time 134.781 s) of 312.409 RLU and an RLU (Time 136.781 s) of 298.284 RLU. The RLU (Time 137.578 s) was 290.936 RLU, the RLU (Time 143.578 s) was 296.494 RLU and the RLU (Time 149.578 s) was 267.674 RLU. For the same molecule, the RLU (Time 155.578 s) was 285.393 RLU, the RLU (Time 161.578 s) was 243.081 RLU and the RLU (Time 167.578 s) was 210.334 RLU. For the same molecule, the RLU (Time 173.578 s) was 225.862 RLU, the RLU (Time 179.578 s) was 201.092 RLU and the RLU (Time 185.578 s) was 199.988 RLU. It also gave an RLU (Time 191.578 s) of 157.165 RLU, an RLU (Time 197.578 s) of 150.89 RLU and an RLU (Time 203.578 s) of 157.65 RLU. For the same molecule, the RLU (Time 209.578 s) was 119.607 RLU, the RLU (Time 215.578 s) was 114.651 RLU and the RLU (Time 221.578 s) was 111.289 RLU. The RLU (Time 227.578 s) was 125.554 RLU, the RLU (Time 233.578 s) was 124.837 RLU and the RLU (Time 239.578 s) was 148.185 RLU. It also gave an RLU (Time 245.578 s) of 121.449 RLU, an RLU (Time 293.578 s) of 139.355 RLU and an RLU (Time 299.578 s) of 114.827 RLU. The RLU (Time 305.578 s) was 107.043 RLU, the RLU (Time 311.578 s) was 92.604 RLU and the RLU (Time 317.578 s) was 88.3008 RLU. The RLU (Time 323.578 s) was 90.2384 RLU, the RLU (Time 329.578 s) was 71.9932 RLU and the RLU (Time 335.578 s) was 67.9746 RLU. The RLU (Time 341.578 s) was 66.5352 RLU, the RLU (Time 347.578 s) was 80.5392 RLU and the RLU (Time 353.578 s) was 85.9834 RLU. The RLU (Time 359.578 s) was 89.3996 RLU and the “Activation threshold concentration Tas2r144” value (p < 0.01 vs empty vector) was 3 µM.
